Source: patent publication US20250154686A1, “COMPOUND LIBRARY” (CHUGAI SEIYAKU KABUSHIKI KAISHA, priority 2021, published 2025)

Target: T1, Bcl-2 protein (Recombinant Human Bcl-2 Protein) (Homo sapiens, UniProt P10415)
T1 construct: purchased Novus Biologicals NBP2-34889
Experiment: AS-MS evaluation of binding of the Example 4 mixture library (1200 compounds/well) to Bcl-2, ASMS ratio (%)
Method: DMSO solutions (prepared into approximately 0.58 mM based on calculation from the average molecular weight of each mixture) of 12 types of mixtures that could each contain 100 compounds, i.e., mixAI-B4J-01, mixAI-B1M-01, mixAI-B1K-01, mixAI-BIO-01, mixAI-B1A-01, mixAI-B3A-01, mixAI-B21-01, mixAI-B2L-01, mixAI-B2N-01, mixAI-B2A-01, mixAI-B2Q-01, and mixAI-B2R-01, shown in Table AI-03-B4J-01, Table AI-03-B1M-01, Table AI-03-B1K-01, Table AI-03-B10-01, Table AI-03-B1A-01, Table AI-03-B3A-01, Table AI-03-B21-01, Table AI-03-B2L-01, Table AI-03-B2N-01, Table AI-03-B2A-01, Table AI-03-B2Q-01, and Table AI-03-B2R-01 described in Example 4, were respectively dispensed to a total of 12 wells of MICROPLATE, 96-well, PP, V-BOTTOM (Greiner Bio-One International GmbH, 651201). 70 nL each from the 12 wells was collected into any one well using LABCYTE ECHO® 555 acoustic dispensing system (Beckman Coulter, Inc.) to prepare a sample solution in a mixed state of 1200 compounds (the presence of 1152 compounds was already identified when the mixtures were prepared in Example 4). Further, Bcl-2 protein (Novus Biologicals, NBP2-34889, Recombinant Human Bcl-2 Protein, Lot E60145051) (19.2 μL) prepared at 20.9 μM in advance using a Tris-HCl buffer (25 mM Tris-HCl, pH 7.4, 150 mM NaCl, 0.025% Tween-20, and 1 mM DTT) was added to the well containing the dispensed 1200 compounds (the presence of 1152 compounds was already identified when the mixtures were prepared in Example 4) (final compound concentration: 20 nM, final Bcl-2 concentration: 20 μM), and the plate was incubated at 23° C. for 1 hour in the dark. Subsequently, 200 μL of an assay buffer (25 mM Tris-HCl, pH 7.4, 150 mM NaCl, 0.025% Tween-20, and 1 mM DTT) was centrifuged three times at 2000×G at 4° C. for 2 minutes using 96-well MacroSpin column, P-2 Material (Harvard Bioscience, Inc., 74-5655) that had been allowed to swell to condition the 96-well MacroSpin column. Subsequently, 20 μL of the sample thus incubated was added to the 96-well MacroSpin column, P-2 Material after the completion of conditioning, and SEC treatment was performed by centrifugation at 2000×G for 2 minutes. 32 μL of a 1:1 mixed solution of acetonitrile and methanol (LC/MS grade, FUJIFILM Wako Pure Chemical Corp.) was added to a flow-through liquid from SEC, and the mixture was centrifuged at 1800×G at 4° C. for 5 minutes. The supernatant was used as analysis sample ASMS (A). By a similar operation, a sample prepared at 1200 compounds/well and supplemented with only a Tris-HCl buffer containing no Bcl-2 protein was incubated under the same conditions as above, and the same organic solvent as above was added thereto without 96-well MacroSpin column treatment. A supernatant obtained by a centrifugation operation was used as STD (B). Next, by a similar operation, a sample prepared at 1200 compounds/well and supplemented with only a Tris-HCl buffer containing no Bcl-2 protein was incubated under the same conditions as above and treated with 96-well MacroSpin column in the same manner as above, and the same organic solvent as above was added thereto. A supernatant obtained by a centrifugation operation was used as BK (C). These samples were measured by reverse-phase LC/MS.
Then, the samples A, B and C were analyzed for the 1200 compounds using TraceFinder 5.1 (Thermo Fisher Scientific Inc.) and CHANCE Software (in-house), and an ASMS ratio (%) was calculated according to the following expression.
Although m/z of the MS peaks was confirmed down to four decimal places, 0 at the decimal level may be omitted in the description in Table AJ-01. For example, “587.0000” is also referred to as “587”, “587.1000” is also referred to as “587.1”, “587.1200” is also referred to as “587.12”, and “587.1230” is also referred to as “587.123”.

[1] = AS-MS, Example 4 mixture library, Bcl-2, replicate n = 1
[2] = AS-MS, Example 4 mixture library, Bcl-2, replicate n = 2
[3] = replicate n = 1, mixture library, value belongs to the MS peak assigned to the compound
[4] = replicate n = 2, mixture library, value belongs to the MS peak assigned to the compound
[5] = AS-MS, mixture of 1200 compounds/well, Bcl-2 protein, replicate n = 1
[6] = AS-MS, mixture of 1200 compounds/well, Bcl-2 protein, replicate n = 2

T1 sequence (P10415 whole entry): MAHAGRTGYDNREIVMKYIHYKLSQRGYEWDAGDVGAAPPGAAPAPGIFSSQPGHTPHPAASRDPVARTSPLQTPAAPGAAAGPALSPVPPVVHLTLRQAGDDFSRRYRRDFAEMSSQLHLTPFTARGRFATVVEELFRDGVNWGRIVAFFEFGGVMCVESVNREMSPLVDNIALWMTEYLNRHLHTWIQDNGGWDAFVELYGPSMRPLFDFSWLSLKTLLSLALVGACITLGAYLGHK

SMILES | ASMS ratio (%) n = 1 [1] [%] | ASMS ratio (%) n = 2 [2] [%] | ASMS ratio (%) n = 1 [5] [%] | ASMS ratio (%) n = 2 [6] [%] | other results
CCOc1cncc(-c2cc(CN3CCN(c4ccc(C(=O)NS(C)(=O)=O)cc4)CC3)cc(OC(C)C)c2)c1 [Compound B2I058-01, 4-[4-[[3-(5-Ethoxypyridin-3-yl)-5-propan-2-yloxyphenyl]methyl]piperazin-1-yl]-N-methylsulfonylbenzamide] | – | – | – | – | ASMS ratio (%) n = 1 [3]: 0.0%; ASMS ratio (%) n = 2 [4]: 0.0%
CCOc1cncc(C#Cc2cc(C(=O)N3CCN(c4ccc(C(=O)NS(=O)(=O)CCC(F)(F)F)cc4)CC3)cc(C(F)(F)F)c2)c1 [Compound B2N042-01, 4-[4-[3-[2-(5-Ethoxypyridin-3-yl)ethynyl]-5-(trifluoromethyl)benzoyl]piperazin-1-yl]-N-(3,3,3-trifluoropropylsulfonyl)benzamide] | 0.0 | 0.0 | – | – | –
CCCNC(=O)c1ccc(N2CCN(C(=O)c3cc(-c4cccc(OCC)c4)cs3)CC2)cc1 [Compound B1M023-01] | – | – | 1.4 | −3.0 | –
CCCNC(=O)c1ccc(N2CCN(C(=O)c3cc(C#Cc4cccc(OCC)c4)cc(C(F)(F)F)c3)CC2)nn1 [Compound B1M019-01] | – | – | 1.5 | 0.0 | –
CCOc1cccc(-c2ccccc2CCC(=O)N2CCN(c3ccc(C(=O)NS(=O)(=O)C(C)(C)C)cc3)CC2)c1 [Compound B2L033-01, N-tert-Butylsulfonyl-4-[4-[3-[2-(3-ethoxyphenyl)phenyl]propanoyl]piperazin-1-yl]benzamide] | – | – | – | – | ASMS ratio (%) n = 1 [3]: 0.0%; ASMS ratio (%) n = 2 [4]: 0.0%
CCCNC(=O)c1ccc(N2CCN(C(=O)c3ccc(-c4cncc(OCC)c4)c(C)c3)CC2)cc1 [Compound B1M026-01] | – | – | 0.9 | 0.9 | –
CCOc1cncc(-c2ccccc2CCC(=O)N2CCN(c3ccc(C(=O)NS(=O)(=O)CCC(F)(F)F)cc3)CC2)c1 [Compound B2N034-01, 4-[4-[3-[2-(5-Ethoxypyridin-3-yl)phenyl]propanoyl]piperazin-1-yl]-N-(3,3,3-trifluoropropylsulfonyl)benzamide] | −0.2 | 1.0 | – | – | –
CCCNC(=O)c1ccc(N2CCN(C(=O)c3ccc(-c4cncc(OCC)c4)c(C)c3)CC2)nn1 [Compound B1M004-01] | – | – | 0.0 | 0.0 | –
CCOc1cccc(-c2ccc(CN3CCN(c4ccc(C(=O)Nc5ccc(OC)cc5)nn4)CC3)c3ccccc23)c1 [Compound B1O091-01, 6-[4-[[4-(3-Ethoxyphenyl)naphthalen-1-yl]methyl]piperazin-1-yl]-N-(4-methoxyphenyl)pyridazine-3-carboxamide] | – | – | – | −2.2 | –
CCCNC(=O)c1ccc(N2CCN(C(=O)c3cncc(C#Cc4cncc(OCC)c4)c3)CC2)nn1 [Compound B1M010-01] | – | – | 0.0 | 0.0 | –
CCCNC(=O)c1ccc(N2CCN(Cc3cc(-c4cncc(OCC)c4)cs3)CC2)nn1 [Compound B1M094-01] | – | – | −1.5 | −2.1 | –
CCCNC(=O)c1ccc(N2CCN(Cc3cc(-c4cncc(OCC)c4)cc(C(F)(F)F)c3)CC2)nn1 [Compound B1M088-01] | – | – | 0.0 | 0.0 | –
CCOc1cccc(-c2ccc(C(=O)N3CCN(c4ccc(C(=O)NS(=O)(=O)C(C)(C)C)nn4)CC3)cc2C)c1 [Compound B2L003-01] | – | – | – | – | ASMS ratio (%) n = 1 [3]: 0.0%; ASMS ratio (%) n = 2 [4]: 0.0%
CCOc1cncc(-c2cc(CN3CCN(c4ccc(C(=O)NS(=O)(=O)C(C)(C)C)nn4)CC3)cc(OC(C)C)c2)c1 [Compound B2L084-01, N-tert-Butylsulfonyl-6-[4-[3-(5-ethoxypyridin-3-yl)-5-propan-2-yloxyphenylmethyl]piperazin-1-yl]pyridazine-3-carboxamide] | −3.0 | −1.9 | – | – | –

Continued, in another order:

ASMS ratio (%) n = 1 [1] [%] | ASMS ratio (%) n = 2 [2] [%] | ASMS ratio (%) n = 1 [5] [%] | ASMS ratio (%) n = 2 [6] [%] | SMILES | other results
21.6 | 0.0 | – | – | CCOc1cccc(-c2ccc(C(=O)N3CCN(c4ccc(C(=O)NS(=O)(=O)c5ccc(NCCSc6ccccc6)c(C(F)(F)F)c5)nn4)CC3)cc2C)c1 [Compound B2R003-01, 6-[4-[4-(3-Ethoxyphenyl)-3-methylbenzoyl]piperazin-1-yl]-N-[4-(2-phenylsulfanylethylamino)-3-(trifluoromethyl)phenyl]sulfonylpyridazine-3-carboxamide] | –
0.0 | 0.0 | – | – | CCOc1cncc(-c2cc(CN3CCN(c4ccc(C(=O)NS(=O)(=O)CCC(F)(F)F)cc4)CC3)cc(OC(C)C)c2)c1 [Compound B2N058-01] | –
0.0 | 0.0 | – | – | CCOc1cncc(-c2cc(OC)c(CN3CCN(c4ccc(C(=O)NS(=O)(=O)c5ccc(NCCSc6ccccc6)c(C(F)(F)F)c5)nn4)CC3)c(OC)c2)c1 [Compound B2R086-01, 6-[4-[[4-(5-Ethoxypyridin-3-yl)-2,6-dimethoxyphenyl]methyl]piperazin-1-yl]-N-[4-(2-phenylsulfanylethylamino)-3-(trifluoromethyl)phenyl]sulfonylpyridazine-3-carboxamide] | –
56.5 | 0.0 | – | – | CCOc1cccc(-c2csc(CN3CCN(c4ccc(C(=O)NS(=O)(=O)c5ccc(NCCSc6ccccc6)c(C(F)(F)F)c5)nn4)CC3)c2)c1 [Compound B2R093-01, 6-[4-[[4-(3-Ethoxyphenyl)thiophen-2-yl]methyl]piperazin-1-yl]-N-[4-(2-phenylsulfanylethylamino)-3-(trifluoromethyl)phenyl]sulfonylpyridazine-3-carboxamide] | –
0.0 | 0.0 | – | – | CCOc1cncc(-c2ccc(C(=O)N3CCN(c4ccc(C(=O)NS(=O)(=O)c5ccc(NCCSc6ccccc6)c(C(F)(F)F)c5)nn4)CC3)cc2C)c1 [Compound B2R004-01, 6-[4-[4-(5-Ethoxypyridin-3-yl)-3-methylbenzoyl]piperazin-1-yl]-N-[4-(2-phenylsulfanylethylamino)-3-(trifluoromethyl)phenyl]sulfonylpyridazine-3-carboxamide] | –
0.0 | 0.0 | – | – | CCOc1cccc(-c2ccc(CN3CCN(c4ccc(C(=O)NS(=O)(=O)CCC(F)(F)F)cc4)CC3)c3ccccc23)c1 [Compound B2N065-01, 4-[4-[[4-(3-Ethoxyphenyl)naphthalen-1-yl]methyl]piperazin-1-yl]-N-(3,3,3-trifluoropropylsulfonyl)benzamide] | –
– | −63.9 | – | – | CCOc1cncc(-c2cc(CN3CCN(c4ccc(C(=O)NS(=O)(=O)c5ccc(NCCSc6ccccc6)c(C(F)(F)F)c5)cc4)CC3)cc(OCC)c2)c1 [Compound B2R056-01, 4-[4-[[3-Ethoxy-5-(5-ethoxypyridin-3-yl)phenyl]methyl]piperazin-1-yl]-N-[4-(2-phenylsulfanylethylamino)-3-(trifluoromethyl)phenyl]sulfonylbenzamide] | –
